Test results as given in EP0432677B1, “N-(pyrrolo[2,3-d]pyrimidin-3-ylacyl)-glutamic acid derivatives” (THE TRUSTEES OF PRINCETON UNIVERSITY, priority 1989, dated 1991).
≈ marks a conversion by molar mass, not a printed value. Entries after “also recorded” stand apart in the source; their conditions may differ. Values belong to the compound of their own block, whether it stands above or below them.

How the values were obtained:
[1] = test system: Cem human lymphoblastic leukemia cells; test: Inhibition of growth of Cem human lymphoblastic leukemia cells, 72 hours incubation, Coulter Counter particle count (Example 11); format: cell-based; conditions: for activity at 0.045 µg/mL: concentration 0.045 µg/ml; for activity at 0.137 µg/mL: concentration 0.137 µg/ml; for activity at 0.411 µg/mL: concentration 0.411 µg/ml; for activity at 1.23 µg/mL: concentration 1.23 µg/ml; for activity at 3.7 µg/mL: concentration 3.7 µg/ml; for activity at 11.1 µg/mL: concentration 11.1 µg/ml; for activity at 33.3 µg/mL: concentration 33.3 µg/ml; for activity at 100 µg/mL: concentration 100.0 µg/ml; for IC50: concentration inhibiting 50% of cellular growth, read-out: relative overall in vitro inhibitory concentration (IC50); for activity at 0.015 µg/mL: concentration 0.015 µg/ml
Method: Each of the compounds was dissolved in 100% dimethylsulfoxide. Dilutions of each compound were prepared to yield a range of test concentrations as hereinafter indicated.
Cem human lymphoblastic leukemia cells are grown in RPMI 1640 media (MABio), supplemented with 10% dialyzed fetal bovine serum (Gibco) at 37°C in humidified atmospheric conditions of 95% air and 5% CO₂. The cells are grown in static suspension (T-flask, Corning) maintained in log phase at a concentration of 3-7 x 10⁵ cells/ml.
(i) 10 µl of a test compound is placed in a well (Costar 24 well clusters). This step is repeated for each test concentration of the compounds. (ii) 500 µl of serum-free media is added to each well. (iii) A sterile bottle containing RPMI 1640 media supplemented with 10% dialyzed fetal bovine serum, 16 mM hepes and 8 mM mops buffers and 3 x 10⁴ cells/ml is placed on a magnetic stirrer. A Wheaton peristaltic pump is used to deliver 1.5 ml of this cell suspension to each well. The resulting final volume delivered to each well is 2.0 ml at a cellular concentration of […]. (iv) The cluster wells are incubated at 37°C in a humidified incubator (95% air, 5% CO₂) for 72 hours. (v) After the incubation period, measurements of each well are taken using the ZB1 Coulter Counter particle counter and the IC₅₀ (concentration inhibiting 50% of cellular growth) is determined. (vi) The results of this test are as follows: Table I

[2] = test system: Cem human lymphoblastic leukemia cells; test: Reversal studies to identify the point of enzymatic inhibition (Example 11); format: cell-based; conditions: from reversal with 100 µM hypoxanthine and/or 5 µM thymidine
Method: The mechanism of action of each compound was determined through further tests employing so-called "reversal" studies. These studies supplied compounds or precursors which, alone or together, identified the specific point of enzymatic inhibition. • (a) Hypoxanthine - Hypoxanthine will reverse the inhibitory effects of a compound if the compound functions as an inhibitor of purine de novo synthesis. The availability of hypoxanthine thus allows cells to bypass purine de novo synthesis. • (b) Thymidine - Thymidine alone will reverse the inhibitory effects of a compound if the compound functions as a specific inhibitor of thymidylate synthetase. • (c) Hypoxanthine and Thymidine - If a compound is determined in (a) to not be an inhibitor of purine de novo synthesis, and in (b) to not be an inhibitor of thymidilate synthetase, then a reversal study utilizing hypoxanthine and thymidine, in combination, will determine whether the compound can produce inhibition of both pathways. Thus if this combination reverses the inhibitory effects of a compound, the compound most likely functions as an inhibitor of dihydrofolate reductase (involved in both purine and pyrimidine biosynthesis).
In each case, the basic procedure outlined above was followed, modified in that 250 µl of the reversal compound [or of each reversal compound in […]] was added to the test wells, and the amount of serumless media added to each test well was decreased [or entirely eliminated in (b)] by the same amount. The reversal compounds were prepared as 8X stock solutions in phosphate buffered saline (sterile filtered through a 0.2 µ acrodisc filter - Gelman) so that 250 µl of the stock solution would yield a final concentration of 100 µM hypoxanthine and/or 5 µM thymidine.

[3] = test system: tumor cells; test: In vivo antitumor activity in mice inoculated with tumor cells, eight daily i.p. doses; parameters: species or system strain DBA/2; conditions: for % Inhibition / Tumor Weight: eight daily doses; for Tumor Weight: mean ± standard deviation; for inhibitory effect on tumor growth in vivo: overall assessment in words
Method: Female mice, strain DBA/2, were inoculated with tumor cells. Treatment with the test compounds began the day following inoculation. The treatment consisted of eight daily doses i.p. (intraperitoneal) of either Compounds A and C for eight consecutive days. Tumor size was measured on the day following the last day of treatment to determine the inhibitory effect of the test compounds on tumor growth.

[4] = test system: CCRF-CEM; test: Representative inhibition values against CCRF-CEM cell cultures; format: cell-based; conditions: Homo sapiens
[5] = Homo sapiens, CCRF-CEM, 72 hours, read-out: Cellular Growth (%)
[6] = Homo sapiens, CCRF-CEM, 72 hours
[7] = Table VI Run 1, dose 12.50 mg/kg i.p.
[8] = Table VI Run 1, dose 25.00 mg/kg i.p.
[9] = Table VI Run 1, dose 50.00 mg/kg i.p.
[10] = Table VI Run 1, dose 100.00 mg/kg i.p.
[11] = Table VI Run 1, dose 200.00 mg/kg i.p.
[12] = Table VI Run 2, dose 0.6256 mg/kg i.p.
[13] = Table VI Run 2, dose 1.25 mg/kg i.p.
[14] = Table VI Run 2, dose 5 mg/kg i.p.
[15] = Table VI Run 2, dose 10 mg/kg i.p.
[16] = Table VI Run 2, dose 20 mg/kg i.p.
[17] = Table VI Run 2, dose 40 mg/kg i.p.

- IC50 [4]: 0.0084 µg/mL (≈ 0.0197 µM)
SMILES: Cc1nc(O)c2c(CCc3ccc(C(=O)N[C@@H](CCC(=O)O)C(=O)O)cc3)c[nH]c2n1 [N-{4-[2-(4-hydroxy-6-methylpyrrolo[2,3-d]pyrimidin-3-yl)ethyl]-benzoyl}-L-glutamic acid]

- IC50 [4]: 1.2 µg/mL (≈ 2.91 µM)
SMILES: O=C(O)CC[C@H](NC(=O)c1ccc(CCc2c[nH]c3ncnc(O)c23)cc1)C(=O)O [N-{4-[2-(4-hydroxypyrrolo[2,3-d]pyrimidin-3-yl)ethyl]benzoyl}-L-glutamic acid]

- IC50 [4]: 0.025 µg/mL (≈ 0.0577 µM)
SMILES: Nc1nc(O)c2c(CCc3ccc(C(=O)N[C@@H](CCC(=O)O)C(=O)O)s3)c[nH]c2n1 [N-{5-[2-(4-hydroxy-6-aminopyrrolo[2,3-d]-pyrimidin-3-yl)ethyl]thien-2-ylcarbonyl}-L-glutamic acid]

Second part, the compound before the results:

SMILES: Nc1nc(O)c2c(n1)NCC2CCc1ccc(C(=O)NC(CCC(=O)O)C(=O)O)cc1 (stereo not drawn) [Compound A, reference compound]
- activity at 0.045 µg/mL [1, 5]: 100%
- activity at 0.137 µg/mL [1, 5]: 63.9%
- activity at 0.411 µg/mL [1, 5]: 21.5%
- activity at 1.23 µg/mL [1, 5]: 16.1%
- activity at 3.7 µg/mL [1, 5]: 15.3%
- activity at 11.1 µg/mL [1, 5]: 16.2%
- activity at 33.3 µg/mL [1, 5]: 15.5%
- activity at 100 µg/mL [1, 5]: 13.1%
- IC50 [1, 6]: 0.2 µg/mL (≈ 0.466 µM)
- mechanism of action (point of enzymatic inhibition) [2]: appear to inhibit TS
- % Inhibition ([3]; Table V, dose 3.125 mg/kg i.p.): 0%
- Tumor Weight ([3]; Table V, dose 3.125 mg/kg i.p.): 2825 ± 822 mg
- % Inhibition ([3]; Table V, dose 6.25 mg/kg i.p.): 0%
- Tumor Weight ([3]; Table V, dose 6.25 mg/kg i.p.): 2719 ± 413 mg
- % Inhibition ([3]; Table V, dose 12.5 mg/kg i.p.): 0%
- Tumor Weight ([3]; Table V, dose 12.5 mg/kg i.p.): 3360 ± 703 mg
- % Inhibition ([3]; Table V, dose 25 mg/kg i.p.): 12%
- Tumor Weight ([3]; Table V, dose 25 mg/kg i.p.): 2121 ± 410 mg
- % Inhibition ([3]; Table V, dose 50 mg/kg i.p.): 19%
- Tumor Weight ([3]; Table V, dose 50 mg/kg i.p.): 1935 ± 498 mg
- % Inhibition ([3]; Table V, dose 100 mg/kg i.p.): 0%
- Tumor Weight ([3]; Table V, dose 100 mg/kg i.p.): 3447 ± 747 mg
- % Inhibition ([3]; Table V, dose 200 mg/kg i.p.): 0%
- Tumor Weight ([3]; Table V, dose 200 mg/kg i.p.): 2525 ± 694 mg
- inhibitory effect on tumor growth in vivo [3]: essentially no inhibitory effect; also recorded: inactive

SMILES: Nc1nc(O)c2c(CCCc3ccc(C(=O)NC(CCC(=O)O)C(=O)O)cc3)c[nH]c2n1 (stereo not drawn) [Compound B]
- activity at 0.015 µg/mL [1, 5]: 76.9%
- activity at 0.045 µg/mL [1, 5]: 33.5%
- activity at 0.137 µg/mL [1, 5]: 17.7%
- activity at 0.411 µg/mL [1, 5]: 13%
- activity at 1.23 µg/mL [1, 5]: 11.3%
- activity at 3.7 µg/mL [1, 5]: 10.4%
- activity at 11.1 µg/mL [1, 5]: 9.6%
- activity at 33.3 µg/mL [1, 5]: 10.8%
- IC50 [1, 6]: 0.03 µg/mL (≈ 0.068 µM)
- mechanism of action (point of enzymatic inhibition) [2]: inhibition of DHFR rather than TS

SMILES: Nc1nc(O)c2c(CCc3ccc(C(=O)NC(CCC(=O)O)C(=O)O)cc3)c[nH]c2n1 (stereo not drawn) [Compound C]
- activity at 0.005 µg/mL ([1]; Homo sapiens, CCRF-CEM, concentration 0.005 µg/ml, 72 hours, read-out: Cellular Growth (%)): 96%
- activity at 0.015 µg/mL [1, 5]: 25%
- activity at 0.045 µg/mL [1, 5]: 14%
- activity at 0.137 µg/mL [1, 5]: 14%
- activity at 0.411 µg/mL [1, 5]: 13%
- activity at 1.23 µg/mL [1, 5]: 14%
- activity at 3.7 µg/mL [1, 5]: 13%
- activity at 11.1 µg/mL [1, 5]: 12%
- activity at 33.3 µg/mL [1, 5]: 12%
- activity at 100 µg/mL [1, 5]: 14%
- IC50 [1, 6]: 0.007 µg/mL (≈ 0.0164 µM)
- more active in vitro than Compound A by a factor ([1]; in vitro, relative to Compound A): at least 25 fold
- mechanism of action (point of enzymatic inhibition) [2]: appear to inhibit TS
- % Inhibition [3, 7]: 98%
- Tumor Weight [3, 7]: 102 ± 166 mg
- % Inhibition [3, 8]: 100%
- Tumor Weight [3, 8]: 0 ± 0 mg
- % Inhibition [3, 9]: 100%
- Tumor Weight [3, 9]: 0 ± 0 mg
- % Inhibition [3, 10]: 100%
- Tumor Weight [3, 10]: 0 ± 0 mg
- % Inhibition [3, 11]: 100%
- Tumor Weight [3, 11]: 0 ± 0 mg
- % Inhibition [3, 12]: 0%
- Tumor Weight [3, 12]: 7381 ± 2397 mg
- % Inhibition [3, 13]: 0%
- Tumor Weight [3, 13]: 6682 ± 2300 mg
- Tumor Weight ([3]; Table VI Run 2, dose 2.5 mg/kg i.p.): 2908 ± 1948 mg
- % Inhibition [3, 14]: 83%
- Tumor Weight [3, 14]: 1034 ± 657 mg
- % Inhibition [3, 15]: 97%
- Tumor Weight [3, 15]: 196 ± 152 mg
- % Inhibition [3, 16]: 100%
- Tumor Weight [3, 16]: 18 ± 57 mg
- % Inhibition [3, 17]: 100%
- Tumor Weight [3, 17]: 0 ± 0 mg
- inhibitory effect on tumor growth in vivo [3]: marked in vivo inhibitory effect; also recorded: highly active
